Read-outs that look alike come from different tables or passages of the source.
Tests used:
Assay type in all cases: in vivo
Leptosphaeria nodorum = Leptosphaeria nodorum test (wheat)/preventive; settings: Table C1
Method: (§1) Solvent: 49 parts by weight of N,N-dimethylacetamide Emulsifier: 1 part by weight of alkylaryl polyglycol ether To produce a suitable preparation of active compound, 1 part by weight of active compound or active compound combination is mixed with the stated amounts of solvent and emulsifier, and the concentrate is diluted with water to the desired concentration. To test for preventive activity, young plants are sprayed with the preparation of active compound or active compound combination at the stated rate of application. After the spray coating has been dried, the plants are sprayed with a spore suspension of Leptosphaeria nodorum.

Phakopsora pachyrhizi = experiment: Phakopsora test (soybeans)/preventive; settings: Phakopsora pachyrhizi, 168 h, read-out: Efficacy in % found; for pest or weed control at 0.5 ppm: application rate 0.5 ppm a.i.
Septoria tritici = experiment: Septoria tritici-test (wheat)/preventive; settings: Table F1
Method: as §1, with “Septoria tritici.” for “Leptosphaeria nodorum.”

Sphaerotheca fuliginea = experiment: Sphaerotheca test (cucumbers)/preventive; settings: Table G1
Method: (§2) Solvent: 24.5 parts by weight of acetone • 24.5 parts by weight of dimethylacetamide Emulsifier: 1 part by weight of alkylaryl polyglycol ether To produce a suitable preparation of active compound, 1 part by weight of active compound is mixed with the stated amounts of solvent and emulsifier, and the concentrate is diluted with water to the desired concentration. To test for preventive activity, young plants are sprayed with the preparation of active compound at the stated rate of application. After the spray coating has dried on, the plants are inoculated with an aqueous spore suspension of Sphaerotheca fuliginea.

Uromyces appendiculatus = experiment: Uromyces test (beans)/preventive; settings: Uromyces appendiculatus, 240 h, read-out: Efficacy in % found; for pest or weed control at 0.2 ppm: application rate 0.2 ppm a.i.
Method: (§3) Solvent: 24.5 parts by weight of acetone • 24.5 parts by weight of dimethylacetamide
(§4) Emulsifier: 1 part by weight of alkylaryl polyglycol ether
(§5) To produce a suitable preparation of active compound, 1 part by weight of active compound is mixed with the stated amounts of solvent and emulsifier, and the concentrate is diluted with water to the desired concentration.
(§6) To test for preventive activity, young plants are sprayed with the preparation of active compound at the stated rate of application. After the spray coating has dried on, the plants are inoculated with an aqueous spore suspension of the causal agent of bean rust (Uromyces appendiculatus) and then remain for 1 day in an incubation cabinet at approximately 20° C. and a relative atmospheric humidity of 100%.
The plants are then placed in a greenhouse at approximately 21° C. and a relative atmospheric humidity of approximately 90%.
The test is evaluated 10 days after the inoculation. 0% means an efficacy which corresponds to that of the untreated control, while an efficacy of 100% means that no disease is observed.

Venturia inaequalis = experiment: Venturia test (apples)/preventive; settings: Table I1
Method: as §2, with “application.” for “application. After the spray coating has dried on, the plants are inoculated with an aqueous spore suspension of Sphaerotheca fuliginea.”

Alternaria solani = experiment: Alternaria test (tomatoes)/preventive
Method: as §3, §4, §5
as §6, with “Alternaria solani. The plants are” for “the causal agent of bean rust (Uromyces appendiculatus) and”, “placed” for “remain for 1 day”
The test is evaluated 3 days after the inoculation. 0% means an efficacy which corresponds to that of the untreated control while an efficacy of 100% means that no disease is observed.

[1] = system: Blumeria graminis f.sp. hordei; experiment: Blumeria test (barley)/preventive; settings: Table B1; application rate 160 ppm a.i.
Method: Solvent: 49 parts by weight of N,N-dimethylacetamide Emulsifier: 1 part by weight of alkylaryl polyglycol ether To produce a suitable preparation of active compound, 1 part by weight of active compound or active compound combination is mixed with the stated amounts of solvent and emulsifier, and the concentrate is diluted with water to the desired concentration. To test for preventive activity, young plants are sprayed with the preparation of active compound or active compound combination at the stated rate of application. After the spray coating has been dried, the plants are dusted with spores of Blumeria graminis f.sp. hordei.

Pyrenophora teres = experiment: Pyrenophora teres-test (barley)/preventive; settings: Table E1; application rate 160 ppm a.i.
Method: Solvent: 49 parts by weight of N,N-dimethylacetamide
as §4
To produce a suitable preparation of active compound, 1 part by weight of active compound or active compound combination is mixed with the stated amounts of solvent and emulsifier, and the concentrate is diluted with water to the desired concentration.
To test for preventive activity, young plants are sprayed with the preparation of active compound or active compound combination at the stated rate of application.
After the spray coating has been dried, the plants are sprayed with a spore suspension of Pyrenophora teres. The plants remain for 48 hours in an incubation cabinet at approximately 20° C. and a relative atmospheric humidity of approximately 100%.
The plants are placed in the greenhouse at a temperature of approximately 20° C. and a relative atmospheric humidity of approximately 80%.
The test is evaluated 8 days after the inoculation. 0% means an efficacy which corresponds to that of the untreated control, while an efficacy of 100% means that no disease is observed.

In the case of `Cn1c(=O)c2sc3c(=O)n(C)c(=O)c3sc2c1=O` [15.61, 2,6-dimethyl-1H,5H-[1,4]dithiino[2,3-c:5,6-c′]dipyrrole-1,3,5,7(2H,6H)-tetrone], the “Efficacy in % found” value (Leptosphaeria nodorum; application rate 800 ppm a.i.) is reported as 20%, the pest or weed control at 100 ppm (Phakopsora pachyrhizi; Table D3, application rate 100 ppm a.i.) is reported as 8% and the “Efficacy in % found” value (Septoria tritici; application rate 800 ppm a.i.) is reported as 0%. The “Efficacy in % found” value (Sphaerotheca fuliginea; application rate 100 ppm a.i.) was 69%, the pest or weed control at 100 ppm (Uromyces appendiculatus; Table H3, application rate 100 ppm a.i.) was 0% and the “Efficacy in % found” value (Venturia inaequalis; application rate 50 ppm a.i.) was 84%.

`CCN(C)/C=N/c1cc(C)c(Oc2nc(Cl)c(Cl)s2)cc1C` [(Ie)] was tested, and the “Efficacy in % found” value (Alternaria solani; Table A1, application rate 0.5 ppm a.i.) was 0%, the “Efficacy in % found” value (Alternaria solani; Table A1, application rate 1 ppm a.i.) was 16% and the “Efficacy in % found” value (Alternaria solani; Table A2, application rate 5 ppm a.i.) was 0%. For the same compound, the “Efficacy in % found” value (Alternaria solani; Table A3, application rate 1 ppm a.i.) was 52%, the “Efficacy in % found” value [1] was 50% and the “Efficacy in % found” value (Leptosphaeria nodorum; application rate 80 ppm a.i.) was 30%. The “Efficacy in % found” value (Leptosphaeria nodorum; application rate 160 ppm a.i.) was 50%, the pest or weed control at 0.25 ppm (Phakopsora pachyrhizi; Table D1, application rate 0.25 ppm a.i.) was 15% and the pest or weed control at 0.5 ppm (Phakopsora pachyrhizi; Table D1) was 35%. The pest or weed control at 0.5 ppm (Phakopsora pachyrhizi; Table D2) was 45%, the pest or weed control at 0.5 ppm (Phakopsora pachyrhizi; Table D3) was 40% and the pest or weed control at 1 ppm (Phakopsora pachyrhizi; Table D3, application rate 1 ppm a.i.) was 65%. For the same compound, the “Efficacy in % found” value (Pyrenophora teres) was 57%, the “Efficacy in % found” value (Septoria tritici; application rate 160 ppm a.i.) was 0% and the “Efficacy in % found” value (Sphaerotheca fuliginea; application rate 0.5 ppm a.i.) was 29%. The “Efficacy in % found” value (Sphaerotheca fuliginea; application rate 1 ppm a.i.) was 29%, the “Efficacy in % found” value (Sphaerotheca fuliginea; application rate 1.25 ppm a.i.) was 29% and the pest or weed control at 0.25 ppm (Uromyces appendiculatus; Table H1, application rate 0.25 ppm a.i.) was 50%. The pest or weed control at 0.05 ppm (Uromyces appendiculatus; Table H2, application rate 0.05 ppm a.i.) was 0%, the pest or weed control at 0.1 ppm (Uromyces appendiculatus; Table H2, application rate 0.1 ppm a.i.) was 0% and the pest or weed control at 0.2 ppm (Uromyces appendiculatus; Table H2) was 30%. The pest or weed control at 0.2 ppm (Uromyces appendiculatus; Table H3) was 11%, the “Efficacy in % found” value (Venturia inaequalis; application rate 0.25 ppm a.i.) was 0% and the “Efficacy in % found” value (Venturia inaequalis; application rate 0.5 ppm a.i.) was 0%. For the same compound, the “Efficacy in % found” value (Venturia inaequalis; application rate 1 ppm a.i.) was 0%.

Source: patent US9572343B2, “Active compound combinations” (BAYER CROPSCIENCE AG, priority 2012, dated 2017)
